What all share (assay type): biochemical
Test [1] addresses T1, MaeB (hybrid malic enzyme, Bd1833/MaeB) (Bdellovibrio bacteriovorus, UniProt Q6MM15). Kind of test: NADPH absorbance assay ([…] nm), dose response. Also on record: gene mdh; full-length MaeB (Met1–Lys780), ligand-free MaeBapo.
Test [2] deals with T2, MaeB (hybrid malic enzyme, Bd1833/MaeB) (Bdellovibrio bacteriovorus, UniProt Q6MM14+Q6MM15). The test is described as follows: steady-state kinetics, NADPH absorbance. Also on record: gene mdh; full-length MaeB (Met1–Lys780).
Target sequence in this assay (Q6MM15 entry or part of it): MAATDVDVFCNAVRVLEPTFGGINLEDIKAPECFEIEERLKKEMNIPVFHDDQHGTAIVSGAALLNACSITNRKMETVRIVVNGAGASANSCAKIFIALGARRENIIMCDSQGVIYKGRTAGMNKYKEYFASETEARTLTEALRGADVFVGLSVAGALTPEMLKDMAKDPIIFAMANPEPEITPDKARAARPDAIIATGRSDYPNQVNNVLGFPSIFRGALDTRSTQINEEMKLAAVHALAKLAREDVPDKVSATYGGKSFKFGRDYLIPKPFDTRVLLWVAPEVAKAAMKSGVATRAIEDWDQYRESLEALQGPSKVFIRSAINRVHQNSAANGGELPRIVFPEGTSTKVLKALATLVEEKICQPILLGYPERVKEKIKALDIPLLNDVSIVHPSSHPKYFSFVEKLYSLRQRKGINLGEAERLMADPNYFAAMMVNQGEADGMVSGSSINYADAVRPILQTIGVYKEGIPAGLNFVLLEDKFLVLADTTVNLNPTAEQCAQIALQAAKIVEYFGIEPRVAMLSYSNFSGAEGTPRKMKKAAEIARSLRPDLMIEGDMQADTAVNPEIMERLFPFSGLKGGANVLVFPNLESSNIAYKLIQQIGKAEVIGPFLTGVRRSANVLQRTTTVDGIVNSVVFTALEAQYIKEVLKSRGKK
Target sequence in this assay (Q6MM14 entry or part of it): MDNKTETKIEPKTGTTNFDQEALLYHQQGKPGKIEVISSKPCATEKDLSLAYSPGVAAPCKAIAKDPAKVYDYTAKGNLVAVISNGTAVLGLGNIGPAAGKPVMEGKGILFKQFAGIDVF
The target of test [3] is T2, MaeB (hybrid malic enzyme, Bd1833/MaeB). The test is described as follows: NADPH absorbance assay ([…] nm), single concentration […]. To be noted: read-out: % of uninhibited activity at 2 mM. Also on record: gene mdh; full-length MaeB (Met1–Lys780).
Target sequence in this assay (Q6MM15 entry or part of it): as the sequence (Q6MM15 entry or part of it) above
Target sequence in this assay (Q6MM14 entry or part of it): as the sequence (Q6MM14 entry or part of it) above
In test [4] the target is T1, MaeB (hybrid malic enzyme, Bd1833/MaeB). Kind of test: X-ray crystal structures of PTA domain and full-length; HPLC of co-purified ligand; enzyme inhibition kinetics (IC50 […]). The arrangement: gene mdh; full-length MaeB (Met1–Lys780) kinetics and crystal structure (6ZNG).
Test [5] deals with T2, MaeB (hybrid malic enzyme, Bd1833/MaeB). Kind of test: NADPH absorbance assay ([…] nm), single concentration […] ([…] activity left). The arrangement: gene mdh; full-length MaeB and MaeBME (Met1–Ala434).
Target sequence in this assay (Q6MM14 entry or part of it): as above
Target sequence in this assay (Q6MM15 entry or part of it): as the sequence (Q6MM15 entry or part of it) above
The target is the same in test [6]. The test is described as follows: steady-state kinetics of reverse reductive carboxylation. The arrangement: gene mdh; full-length MaeB (Met1–Lys780).
Target sequence in this assay (Q6MM15 entry or part of it): as above
Target sequence in this assay (Q6MM14 entry or part of it): as the sequence (Q6MM14 entry or part of it) above

T1 sequence (Q6MM14 entry or part of it): as above
T1 sequence (Q6MM15 entry or part of it): as the sequence (Q6MM15 entry or part of it) above

For `CC(C)(COP(=O)(O)OP(=O)(O)OC[C@H]1O[C@@H](n2cnc3c(N)ncnc32)[C@H](O)[C@@H]1OP(=O)(O)O)[C@@H](O)C(=O)NCCC(=O)NCCS` [CoA], the IC50 in test [1] stood at 20.2 µM.

Consider `O=C(O)C[C@H](O)C(=O)O` [L-malate], for which the “steady-state kinetics, NADPH absorbance” value in test [2] came out at 10000 M⁻¹ s⁻¹.

As to `CC(=O)OP(=O)(O)O` [acetyl phosphate], in test [3], the activity at 2000 µM is roughly 50%.

Consider `CC(=O)SCCNC(=O)CCNC(=O)[C@H](O)C(C)(C)COP(=O)(O)OP(=O)(O)OC[C@H]1O[C@@H](n2cnc3c(N)ncnc32)[C@H](O)[C@@H]1OP(=O)(O)O` [acetyl-CoA], for which the affinity in test [4] corresponds to a Ki of 0.7 µM.

On to `O=C(O)CC(=O)C(=O)O` [oxaloacetate], for which, in test [5], the “NADPH absorbance assay (340 nm), single concentration 2 mM (<10% activity left)” value is “oxaloacetate inhibited both MaeB and MaeBME activities, suggesting this effector interacts directly with the ME domain”.

Take `CC(=O)C(=O)O` [pyruvate]: in test [6], the “steady-state kinetics of reverse reductive carboxylation” value came out at 30 M⁻¹ s⁻¹.

As usually defined, the IC50 is the midpoint of a concentration-inhibition curve. High values mean lower potency, low ones higher potency. A word on the Ki: it is the dissociation constant of the complex between target and ligand, obtained from inhibition or displacement.

Source of the values: publication PMC7902834, “A rotary mechanism for allostery in bacterial hybrid malic enzymes” (Nature Communications, 2021).
